We go through two compounds from patent US20120021117A1, “METHOD FOR PRESERVING DRINKS” (LANXESS DEUTSCHLAND GMBH, priority 2008, published 2012).

Like-named read-outs stand apart in the source and are kept apart here.

One assay relates to Saccharomyces cerevisiae. Put plainly: Activity of DMDC, LF and their mixtures in inoculated apple juice drink, cell count after one week. The assay is classed as cell-based. Conditions: inoculum 375 cells/ml.
A short description of assay [1]: Microbiological keeping time of bottled orange juice drink without sorbate (Example 3). Conditions: 0.5 l PET bottles, 500 ppm limonene-containing mixture and/or 200 ppm of DMDC, visual and organoleptic inspection. The source says: The samples were thereafter regularly inspected visually and organoleptically.
Another assay deals with Lactobacillus brevis. As to the kind of experiment: Microbiological colony count determination in inoculated apple juice/water 1:1 after 24 hours. Conditions: Cell inoculum approximately 100 cells/ml; DMDC concentration not given; duplicate. The class given is cell-based.
The conditions of assay [2]: orange juice drink with potassium sorbate equivalent to 100 ppm of sorbic acid, 0.5 l PET bottles; 500 ppm limonene-containing mixture and/or 200 ppm of DMDC; visual and organoleptic inspection.
Method: Thereafter the drink was packaged directly on a drinks bottling line (10 000 l/h) into 0.5 l PET bottles.
In this case the limonene-containing mixture was added during final mixing of the drink, whereas for metering DMDC, an electromagnetic metering pump connected upstream of the filler was used.
As comparative experiment, the same drink was packaged non-preserved, or packaged treated only with DMDC or only with limonene.

Method for Lactobacillus brevis: For this a sterilized drink matrix (apple juice/water 1:1) was inoculated with different cell inocula of L. brevis admixed with DMDC or limonene in the stated concentrations, the samples were shaken well and after 24 hours on suitable agar plates the respective cell counts present were determined (in each case in duplicate).
Method for Saccharomyces cerevisiae: The activity of the individual components DMDC and limonene (in a formulation) and the activity of mixtures of DMDC and limonene (in a formulation) was tested against Saccharomyces cerevisiae.
For this, an apple juice drink was inoculated with 375 cells of Saccharomyces cerevisiae per ml and the active ingredient concentrations reported in Table 1 were added. In the table, DMDC is dimethyl dicarbonate, added as such.
LF was added first and then DMDC. Subsequently thereto the mixtures were thoroughly shaken and incubated at 26° C. for one week. The cell count present was then determined.

In the case of `COC(=O)OC(=O)OC` [DMDC, dimethyl dicarbonate], the “efficacy, defined as freedom from cells (concentration, component alone)” value in the assay on Saccharomyces cerevisiae is recorded as “above 150 ppm”. Further, in assay [1], the microbiological keeping time entry is given as “approximately 20 days”. Further, in the assay with Lactobacillus brevis, the “cell count determination after 24 hours” value is 54/75.
In the case of `C/C=C/C=C/C(=O)O` [sorbic acid], the microbiological keeping time entry in assay [2] is “approximately 6 days”.
